Patent publication US20130210752A1, “USING A NOVEL HIGH-THROUGHPUT YEAST CELL-BASED SCREENING PLATFORM TO IDENTIFY HMG-COA REDUCTASE INHIBITORS FROM NATURAL PRODUCTS AND THE USES OF SUCH INHIBITORS THEREOF” (HONG KONG BAPTIST UNIVERSITY, priority 2012, published 2013)

How the values were obtained:
HMG-CoAR = molecular target: T1, HMG-CoAR (Homo sapiens, UniProt P04035); test: In vitro HMG-CoAR activity assay (commercial kit, Sigma; NADPH oxidation at 340 nm); assay type: biochemical; details: 60 μg/ml
T1 construct: the oxidation of NADPH by the catalytic subunit of HMGR in the presence of the substrate of HMG-CoA; purchased Sigma, USA
T1 sequence (P04035 426-888 limits assumed): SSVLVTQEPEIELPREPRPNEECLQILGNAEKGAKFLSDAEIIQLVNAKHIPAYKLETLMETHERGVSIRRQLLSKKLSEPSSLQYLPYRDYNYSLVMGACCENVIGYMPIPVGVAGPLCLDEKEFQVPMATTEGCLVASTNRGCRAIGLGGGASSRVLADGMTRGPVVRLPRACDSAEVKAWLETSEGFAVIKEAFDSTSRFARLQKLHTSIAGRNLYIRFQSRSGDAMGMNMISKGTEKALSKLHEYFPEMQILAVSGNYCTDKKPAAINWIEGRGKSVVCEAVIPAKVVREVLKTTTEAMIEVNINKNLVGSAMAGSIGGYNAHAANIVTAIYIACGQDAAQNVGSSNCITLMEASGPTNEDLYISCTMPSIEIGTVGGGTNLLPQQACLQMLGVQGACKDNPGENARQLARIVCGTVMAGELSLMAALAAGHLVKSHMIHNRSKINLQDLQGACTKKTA
Procedure: Commercial HMG-CoAR activity assay kit (Sigma, USA) is used in this experiment. The HMG-CoAR activity assay is based on the spectrophotometric measurement of the decrease in absorbance at 340 nm, which represents the oxidation of NADPH by the catalytic subunit of HMGR in the presence of the substrate of HMG-CoA. Pravastatin (Positive control), 7E1 or 7E2 are tested in this assay.
The HMG-CoAR activity was determined by the commercially available in vitro assay kit (Sigma, USA). The protocol of the assay was performed as described in the manufacture's manual. The HMG-CoAR activity assay is based on the spectrophotometric measurement of the decrease in absorbance at 340 nm, which represents the oxidation of NADPH by the catalytic subunit of HMGR in the presence of the substrate of HMG-CoA.
To validate the inhibitory effect of HMG-CoAR activity of compounds 7E1 and 7E2, in vitro HMG-CoAR activity is performed. Commercial HMG-CoAR activity assay kit (Sigma, USA) is used. The HMG-CoAR activity assay is based on the spectrophotometric measurement of the decrease in absorbance at 340 nm, which represents the oxidation of NADPH by the catalytic subunit of HMGR in the presence of the substrate of HMG-CoA. HMG-CoAR inhibitory effect of Pravastatin (Positive control), 7E1 or 7E2 are tested.

[1] = tested on: yeast cells lacking HMG1 and HMG2 with HMG1 overexpression plasmid (HMG-CoAR); test: Yeast HMG-CoAR screening assay (yeast cell growth, OD660, with or without mevalonate); assay type: cell-based, Saccharomyces cerevisiae; details: for restoration of growth / reduction of inhibitory effect in the presence of mevalonate (compounds from Fraction 7): 300 μg/ml (7E1: 150 μg/ml), with mevalonate; for growth inhibition in the yeast cells: without mevalonate
From the text: The present invention provides a screening method to identify potential HMG-CoAR inhibitors. The present method comprises providing a yeast strain which lacks HMG1 and HMG2 genes but containing a HMG1 overexpression plasmid, contacting said yeast strain with a test material. If the test material can inhibit the HMG1 activity or expression, the yeast cells will die. In order to validate the death of yeast cells is due to inhibition of HMG1 by the test material, the present invention also includes adding mevalonate compound, which is a downstream product of the HMG-CoAR. HMG-CoAR inhibitory activity of the test material is confirmed if the cell viability of the yeast strain is unaffected by the test material in the presence of mevalonate.
Saccharomyces cerevisiae (MATa ade2-101 his3-200 hmg1::LYS2 hmg2:his3 lys2-80 met TRP1 ura3-52 with overexpression of yeast HMG1 containing plasmid) were used in the screening assay. Cells were grown at 30° C. in YEPD, consisting of 10 g/L yeast extract, 20 g/L Bacto-peptone and 20 g/L dextrose.
Yeast cells were grown overnight in YEPD medium to ^˜7.0 OD660 at 30° C. Cells were then subculture to a fresh YEPD medium with starting ^˜0.1 starting OD660 and grew for another 8 hours to ^˜1.2 OD660. The assay was performed in a 96-well plate. 2.7×10^4 cells, tested drugs/chemicals and/or mevalonate were added to each well in a final volume of 100 μl. All experiments were performed in triplicate. Cells were then grown for 16 hours at 30° C. and the inhibitory effect of HMG-CoAR determined by measuring the cell density OD660 of each well by a micro-plate reader. Statin was used as a positive control and mevalonate supplement was used to validate the inhibitory effect of tested compounds on HMG-CoAR.

Molecule	inhibition of HMG-CoAR activity in vitro (HMG-CoAR)	restoration of growth / reduction of inhibitory effect in the presence of mevalonate (compounds from Fraction 7) [1]	growth inhibition in the yeast cells ([1]; 300 μg/ml) [%]	growth inhibition in the yeast cells ([1]; 150 μg/ml) [%]
CC(C)=CCC[C@](C)(O[C@@H]1O[C@H](CO[C@@H]2OC[C@@H](O)[C@H](O)[C@H]2O)[C@@H](O)[C@H](O)[C@H]1O)[C@H]1CC[C@]2(C)[C@@H]1[C@H](O)C[C@@H]1[C@@]3(C)CC[C@H](O[C@@H]4O[C@H](CO)[C@@H](O)[C@H](O)[C@H]4O)C(C)(C)[C@@H]3CC[C@]12C [Compound 7E2, gypenoside IX]	can inhibit the HMG-CoAR activity	significant reduction of inhibitory effects	80	
gypenoside XLV-Ed [Compound 7E1]	can inhibit the HMG-CoAR activity	significant reduction of inhibitory effects		65
